Data set [1] has as its system Human umbilical vein endothelial cells (HUVEC). The data set can be described thus: Endothelial cell viability assay (trypan blue exclusion). Particulars: for HUVEC cell viability vs control: 37° C., absence of any oxidants (unstressed); for HUVEC cell viability vs control / HUVEC cell survival in the presence of menadione: supplemented UW.
Method: Human umbilical vein endothelial cells (HUVEC) were seeded in 162 ml flasks (Dulbecco's modified Eagle's medium 37° C., 5% CO2). Cells were cultured to confluence and transferred to 6-well culture dishes containing phosphate buffered saline (control), UW without GSH, UW+GSH (3 mM), UW+GSH-MEE (3 mM) or UW+GSNO for 24 h (37° C.) in the absence of any oxidants or in the presence of a hydroxyl radical generator (menadione; 10 μM), the superoxide generating system, xanthine+xanthine oxidase (5 μM; 1 mU/ml) or the oxidant species H2O2 (100 μM). Cell viability after 24 h incubations was assessed using a standard trypan blue exclusion assay.
The subject of a further data set is aortic rings. The experiment in a line: Cold ischaemic storage of aortic rings in UW solutions followed by myograph reoxygenation. Particulars: for endothelium-dependent relaxation (ACh) vs GSH-free UW: GSH 3 mM, GSHMEE 3 mM. On the set-up: species or system Wistar rats. The method, then:
Animal care and experimental protocols were performed in accordance with the Home Office Guidance in the Operation of Animals (Scientific Procedures) Act 1986, UK. Adult male Wistar rats weighing 300-450 g were kept in a temperature-controlled environment with a 12 h light-dark cycle, and allowed free access to water and standard diet. University of Wisconsin solution was prepared according to standard protocol: Potassium lactobionate 100 mM, KH2PO4 25 mM, MgSO4 5 mM, raffinose 30 mM, adenosine 5 mM, allopurinol 1 mM, dexamethasone 16 mg/L, insulin 40 U/L, penicillin 200 000 U/L and EDTA 0.03 mM at pH 7.4. The EDTA was added in order to help protect GSNO against metal-ion catalysed decomposition. The solution was bubbled with argon gas for 1 hour to mimic hypoxia. Oxygen levels were confirmed using an oxygen electrode (Apollo 4000 integrated free radical analyser, World Precision Instruments Inc. USA). Bubbling for 30 minutes depleted >90% of oxygen in solution. Following cervical dislocation, laparotomy was performed and the aorta dissected with clearance of periaortic fat and connective tissue. Vessels were divided into 3-5 mm aortic rings with care taken not to stretch or damage the vessels. Aortic rings were subjected to cold ischaemic storage (4° C. for 1 or 48 hours) in sealed containers filled with hypoxic control (UW without GSH) solution; UW with GSH (3 mM); UW with glutathione monoethyl ester ([…]; 3 mM) or UW with S-nitrosated glutathione (GSNO; 100 μM). After storage, aortic rings were suspended between two stainless steel supports in a myograph (700MO, Danish Myo, Aarhus, Denmark) and reoxygenated in 10 ml organ baths containing Krebs buffer solution (mM): […] Resting tensions of 1.5 g were applied to all rings prior to equilibration (30 minutes). Following equilibration, all vessels were exposed to Krebs buffer containing a high concentration of potassium (60 mM) three times to assess tissue viability and to provide a reference maximum contraction for subsequent data analysis. Each response was followed by a washout. A concentration-response curve to the α1 adrenoceptor agonist, L-phenylephrine (PE; 10^-8M-3×10^-5M) was then constructed and used to identify the concentration of PE required to generate 80% maximal contraction (EC80) for subsequent vasodilator studies. Upon establishing stable contractions, cumulative concentration-response curves to the endothelium-dependent vasodilator, acetylcholine (ACh; 10^-9-10^-5M) were constructed in all preparations. Only one concentration-response curve was obtained per tissue. A further submaximal PE contraction was elicited and the NO synthase inhibitor, N^ω-nitro-L-arginine methyl ester (L-NAME) was applied to inhibit endogenous NO production and to determine the vasodilatory effect of endothelium-derived NO under basal (unstimulated) conditions. Subsequently, the NO scavenger, carboxy-PTIO (cPTIO; 1 mM), was added in order to establish the contribution of NOS-independent NO to any vasodilator tone existing under basal conditions.

The nature of data set [2]: Decomposition of GSNO in storage, absorbance at 339 nm. Type of data set: physicochemical. The method, then: The freezing point for DMSO is ˜15° C., so these samples were effectively “frozen” for the duration of the experiment, perhaps contributing to the stability of GSNO under these conditions. The apparent depression of absorbance at time zero in the DMSO sample is most likely attributable to incomplete dissolution of the material when the first measurement was taken.

Where [3] appears, read: after 48 h cold ischaemia, GSNO 100 μM.

The values below come from patent US9131677B2, “Organ preservation solution” (University Court of the University of Edinburgh, priority 2006, dated 2015).

`N[C@@H](CCC(=O)N[C@@H](CS)C(=O)NCC(=O)O)C(=O)O` [GSH, Glutathione]: in data set [1] (24 h), the “HUVEC cell viability vs control” value is reported as “significantly reduced viability”. Moreover, in data set [1] (24 h, menadione 10 μM), the “HUVEC cell survival in the presence of menadione” value was “significantly enhanced cell survival”. The “endothelium-dependent relaxation (ACh) vs GSH-free UW” value in the data set with aortic rings (setting [3]) is “significantly poorer endothelium-dependent relaxation”.

Regarding `CCOC(=O)CNC(=O)[C@H](CS)NC(=O)CC[C@H](N)C(=O)O` [GSH-MEE, glutathione monoethyl ester], the “HUVEC cell viability vs control” value in data set [1] (24 h) was “significantly reduced viability”. In addition, the “HUVEC cell survival in the presence of menadione” value in data set [1] (24 h, menadione 10 μM) was “significantly enhanced cell survival”. The “contraction on addition of L-NAME to precontracted tissues vs standard UW” value in the data set with aortic rings (after 48 h cold ischaemia) was “significantly lesser contraction”. Also, in the data set with aortic rings (setting [3]), the “endothelium-dependent relaxation (ACh) vs GSH-free UW” value is “no significant difference”.

For `N[C@@H](CCC(=O)N[C@@H](CSN=O)C(=O)NCC(=O)O)C(=O)O` [GSNO, S-nitrosoglutathione], the “HUVEC cell viability vs control” value in data set [1] (24 h) is “not significantly different from control”. For the same molecule, the “HUVEC cell survival in the presence of menadione” value in data set [1] (24 h, menadione 10 μM) was “ineffective”. For the same molecule, in the data set on aortic rings (after 1 h cold ischaemia), the “contraction on further addition of NO scavenger cPTIO vs standard UW” value is recorded as “significantly greater contraction”. Moreover, in the data set on aortic rings (after 48 h cold ischaemia), the “contraction on addition of L-NAME to precontracted tissues vs standard UW” value was “significantly lesser contraction” and the “contraction on further addition of cPTIO vs standard UW” value was “significantly greater contraction”. Besides, in the data set on aortic rings (setting [3]), the “endothelium-dependent relaxation (ACh) vs GSH-free UW” value is “no significant difference” and the “maximal contractions to PE vs GSH-free UW” value is “significantly depressed maximal contractions”. In addition, the half-life at 100 µM in data set [2] (modified UW solution, modified UW (containing EDTA but excluding GSH), refrigerator in the dark at 4-6° C.) was about 144 h. Also, the “decomposition of GSNO in 100% DMSO” value in data set [2] (same time period, dark, 4-6° C., samples effectively frozen) is listed as “did not show any significant decomposition”.

Take `OO` [H2O2]: the “effect of oxidant on HUVEC cell survival” value in data set [1] (24 h, X/XO 5 μM, 1 mU/ml, H2O2 100 μM) is recorded as “substantial cell death”.

In the case of `CC1=CC(=O)c2ccccc2C1=O` [menadione], in data set [1] (24 hr treatment, menadione 10 μM), the “cells surviving oxidant treatment under control conditions” value was “less than 5%”.

A word on the half-life: it is the time needed for the level to fall by half in the phase considered.
